Results taken from patent US20190315823A1, “SMALL CATIONIC ANTI-BIOFILM AND IDR PEPTIDES” (priority 2013, published 2019).
Ends that are not written are not given here.

Tested on: LPS-stimulated human peripheral blood mononuclear cells (IL1-β)
Test: not given
Format: cell-based
Conditions: Table 12; cells stimulated with 10 ng/ml LPS

Compared with “1018-V12: single substituted 1018 peptide (VRLIVAVRIWRV-NH2) [Peptide 1018-V12]”, “1018-Q6: single substituted 1018 peptide (VRLIVQVRIWRR-NH2) [Peptide 1018-Q6]” is lower in “Fold change in IL1β relative to no peptide LPS stimulated cells” value: 0.51 for the first, 0.14 for the second.

“1002-Q12: single substituted 1002 peptide (VQRWLIVWRIRQ-NH2) [Peptide 1002-Q12]” and “1002-A9: single substituted 1002 peptide (VQRWLIVWAIRK-NH2) [Peptide 1002-A9]” are the same in “Fold change in IL1β relative to no peptide LPS stimulated cells” value: 0.05 for the first, 0.05 for the second.

Compared with “HH2-G3: single substituted HH2 peptide (VQGRIRVAVIRA-NH2)”, “1018-R4: single substituted 1018 peptide (VRLRVAVRIWRR-NH2) [Peptide 1018-R4]” is lower in “Fold change in IL1β relative to no peptide LPS stimulated cells” value: 1.29 for the first, 0.47 for the second.

“1002-A12: single substituted 1002 peptide (VQRWLIVWRIRA-NH2) [Peptide 1002-A12]” and “1002-W6: single substituted 1002 peptide (VQRWLWVWRIRK-NH2) [Peptide 1002-W6]” are the same in “Fold change in IL1β relative to no peptide LPS stimulated cells” value: 0.05 for the first, 0.05 for the second.

Compared with “1002-A8: single substituted 1002 peptide (VQRWLIVARIRK-NH2) [Peptide 1002-A8]”, “1018-Q10: single substituted 1018 peptide (VRLIVAVRIQRR-NH2) [Peptide 1018-Q10]” is higher in “Fold change in IL1β relative to no peptide LPS stimulated cells” value: 0.09 for the first, 0.12 for the second.

Going from “1018-V9: single substituted 1018 peptide (VRLIVAVRVWRR-NH2) [Peptide 1018-V9]” to “HH2-I3: single substituted HH2 peptide (VQIRIRVAVIRA-NH2)”, the “Fold change in IL1β relative to no peptide LPS stimulated cells” value rises from 0.11 to 1.02.

First: HH2-I6: single substituted HH2 peptide (VQLRIIVAVIRA-NH2)
Second: 1002-I5: single substituted 1002 peptide (VQRWIIVWRIRK-NH2) [Peptide 1002-I5]
The “Fold change in IL1β relative to no peptide LPS stimulated cells” value of the first is higher: 0.75 for the first, 0.08 for the second.

In the case of “1002-Q4: single substituted 1002 peptide (VQRQLIVWRIRK-NH2) [Peptide 1002-Q4]”, the “Fold change in IL1β relative to no peptide LPS stimulated cells” value was 0.47.

Same assay, conditions: Table 12; cells stimulated with 10 ng/ml LPS; LPS alone 1313 (HH2 derivatives), 1927 (1018 derivatives), 2455 (1002 and hybrid peptides) pg/ml

Compared with “1018-V12: single substituted 1018 peptide (VRLIVAVRIWRV-NH2) [Peptide 1018-V12]”, “1018-Q6: single substituted 1018 peptide (VRLIVQVRIWRR-NH2) [Peptide 1018-Q6]” is 3.6-fold lower in “IL1β Production” value: 673 pg/mL for the first, 186 pg/mL for the second.

“1002-Q12: single substituted 1002 peptide (VQRWLIVWRIRQ-NH2) [Peptide 1002-Q12]” and “1002-A9: single substituted 1002 peptide (VQRWLIVWAIRK-NH2) [Peptide 1002-A9]” are the same in “IL1β Production” value: 127 pg/mL for the first, 127 pg/mL for the second.

Going from “HH2-G3: single substituted HH2 peptide (VQGRIRVAVIRA-NH2)” to “1018-R4: single substituted 1018 peptide (VRLRVAVRIWRR-NH2) [Peptide 1018-R4]”, the “IL1β Production” value falls from 1687 pg/mL to 615 pg/mL (2.7-fold).

“1002-A12: single substituted 1002 peptide (VQRWLIVWRIRA-NH2) [Peptide 1002-A12]” and “1002-W6: single substituted 1002 peptide (VQRWLWVWRIRK-NH2) [Peptide 1002-W6]” are the same in “IL1β Production” value: 127 pg/mL for the first, 127 pg/mL for the second.

“1002-A8: single substituted 1002 peptide (VQRWLIVARIRK-NH2) [Peptide 1002-A8]” and “1018-Q10: single substituted 1018 peptide (VRLIVAVRIQRR-NH2) [Peptide 1018-Q10]” are within 1.5-fold of each other in “IL1β Production” value: 219 pg/mL for the first, 154 pg/mL for the second.

Compared with “1018-V9: single substituted 1018 peptide (VRLIVAVRVWRR-NH2) [Peptide 1018-V9]”, “HH2-I3: single substituted HH2 peptide (VQIRIRVAVIRA-NH2)” is 9.4-fold higher in “IL1β Production” value: 142 pg/mL for the first, 1336 pg/mL for the second.

Going from “HH2-I6: single substituted HH2 peptide (VQLRIIVAVIRA-NH2)” to “1002-I5: single substituted 1002 peptide (VQRWIIVWRIRK-NH2) [Peptide 1002-I5]”, the “IL1β Production” value falls from 984 pg/mL to 186 pg/mL (5.3-fold).

“1002-Q4: single substituted 1002 peptide (VQRQLIVWRIRK-NH2) [Peptide 1002-Q4]” was tested, and the “IL1β Production” value was 1165 pg/mL.

Tested on: methicillin resistant Staphylococcus aureus (MRSA) biofilm
Test: not given
Conditions: approximate peptide concentration […] (around 3 μg/ml); compared to untreated samples
In short: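 Peptide was present from inoculation onward, with bacteria seeded at 1/100 from overnight cultures into BM2 biofilm medium or Luria Broth. Crystal violet staining of surface-attached cells (A595) quantified biofilm reduction at 22–46 h. K. pneumoniae was additionally screened in a real-time Bioflux flow device for some peptides.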

First: 1018-V12: single substituted 1018 peptide (VRLIVAVRIWRV-NH2) [Peptide 1018-V12]
Second: 1018-Q6: single substituted 1018 peptide (VRLIVQVRIWRR-NH2) [Peptide 1018-Q6]
The “% Biofilm inhibition” value of the first is higher: 56% for the first, 55% for the second.

First: 1002-Q12: single substituted 1002 peptide (VQRWLIVWRIRQ-NH2) [Peptide 1002-Q12]
Second: 1002-A9: single substituted 1002 peptide (VQRWLIVWAIRK-NH2) [Peptide 1002-A9]
The “% Biofilm inhibition” value of the first is higher: 65% for the first, 58% for the second.

Compared with “HH2-G3: single substituted HH2 peptide (VQGRIRVAVIRA-NH2)”, “1018-R4: single substituted 1018 peptide (VRLRVAVRIWRR-NH2) [Peptide 1018-R4]” is higher in “% Biofilm inhibition” value: 21% for the first, 58% for the second.

First: 1002-A12: single substituted 1002 peptide (VQRWLIVWRIRA-NH2) [Peptide 1002-A12]
Second: 1002-W6: single substituted 1002 peptide (VQRWLWVWRIRK-NH2) [Peptide 1002-W6]
The “% Biofilm inhibition” value of the first is lower: 37% for the first, 53% for the second.

First: 1002-A8: single substituted 1002 peptide (VQRWLIVARIRK-NH2) [Peptide 1002-A8]
Second: 1018-Q10: single substituted 1018 peptide (VRLIVAVRIQRR-NH2) [Peptide 1018-Q10]
The “% Biofilm inhibition” value of the first is higher: 52% for the first, 38% for the second.

Compared with “1018-V9: single substituted 1018 peptide (VRLIVAVRVWRR-NH2) [Peptide 1018-V9]”, “HH2-I3: single substituted HH2 peptide (VQIRIRVAVIRA-NH2)” is higher in “% Biofilm inhibition” value: 53% for the first, 62% for the second.

Compared with “HH2-I6: single substituted HH2 peptide (VQLRIIVAVIRA-NH2)”, “1002-I5: single substituted 1002 peptide (VQRWIIVWRIRK-NH2) [Peptide 1002-I5]” is higher in “% Biofilm inhibition” value: 45% for the first, 84% for the second.

With “1002-Q4: single substituted 1002 peptide (VQRQLIVWRIRK-NH2) [Peptide 1002-Q4]” the “% Biofilm inhibition” value was 36%.

Tested on: human peripheral blood mononuclear cells (MCP-1)
Test: SPOT-synthesized derivative screen: production of chemokine MCP-1
Format: cell-based
Conditions: Table 12; No LPS; human PBMC, peptide at ~18-24 μM
In short: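 MCP-1 was quantified by capture ELISA in cleared culture supernatants of treated human peripheral blood mononuclear cells. Cells came from heparinized volunteer blood via Ficoll gradient and were seeded at 0.75 to 1×10^6 cells/ml (37 °C, 5% CO2).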

First: 1018-V12: single substituted 1018 peptide (VRLIVAVRIWRV-NH2) [Peptide 1018-V12]
Second: 1018-Q6: single substituted 1018 peptide (VRLIVQVRIWRR-NH2) [Peptide 1018-Q6]
The “Fold increase in MCP1 cf. untreated cells” value (“Fold increase” below) of the first is higher: 1.3 for the first, 0.7 for the second.

Compared with “1002-Q12: single substituted 1002 peptide (VQRWLIVWRIRQ-NH2) [Peptide 1002-Q12]”, “1002-A9: single substituted 1002 peptide (VQRWLIVWAIRK-NH2) [Peptide 1002-A9]” is higher in “Fold increase” value: 6.1 for the first, 14.4 for the second.

Going from “HH2-G3: single substituted HH2 peptide (VQGRIRVAVIRA-NH2)” to “1018-R4: single substituted 1018 peptide (VRLRVAVRIWRR-NH2) [Peptide 1018-R4]”, the “Fold increase” value falls from 1.7 to 0.6.

First: 1002-A12: single substituted 1002 peptide (VQRWLIVWRIRA-NH2) [Peptide 1002-A12]
Second: 1002-W6: single substituted 1002 peptide (VQRWLWVWRIRK-NH2) [Peptide 1002-W6]
The “Fold increase” value of the first is higher: 1.4 for the first, 0.9 for the second.

Compared with “1002-A8: single substituted 1002 peptide (VQRWLIVARIRK-NH2) [Peptide 1002-A8]”, “1018-Q10: single substituted 1018 peptide (VRLIVAVRIQRR-NH2) [Peptide 1018-Q10]” is lower in “Fold increase” value: 0.9 for the first, 0.7 for the second.

First: 1018-V9: single substituted 1018 peptide (VRLIVAVRVWRR-NH2) [Peptide 1018-V9]
Second: HH2-I3: single substituted HH2 peptide (VQIRIRVAVIRA-NH2)
The “Fold increase” value of the first is higher: 105 for the first, 6.8 for the second.

Compared with “HH2-I6: single substituted HH2 peptide (VQLRIIVAVIRA-NH2)”, “1002-I5: single substituted 1002 peptide (VQRWIIVWRIRK-NH2) [Peptide 1002-I5]” is higher in “Fold increase” value: 8.1 for the first, 24.2 for the second.

“1002-Q4: single substituted 1002 peptide (VQRQLIVWRIRK-NH2) [Peptide 1002-Q4]” was tested, and the “Fold increase” value was 0.9.

Same assay, conditions: Table 12; No LPS; human PBMC, peptide at ~18-24 μM; background subtracted 139 (HH2 derivatives), 170 (1018 derivatives), 242 (1002 and hybrid peptides) pg/ml

Going from “1018-V12: single substituted 1018 peptide (VRLIVAVRIWRV-NH2) [Peptide 1018-V12]” to “1018-Q6: single substituted 1018 peptide (VRLIVQVRIWRR-NH2) [Peptide 1018-Q6]”, the “MCP1” value falls from 56 pg/mL to -54 pg/mL.

First: 1002-Q12: single substituted 1002 peptide (VQRWLIVWRIRQ-NH2) [Peptide 1002-Q12]
Second: 1002-A9: single substituted 1002 peptide (VQRWLIVWAIRK-NH2) [Peptide 1002-A9]
The “MCP1” value of the first is 2.6-fold lower: 1225.7 pg/mL for the first, 3239.9 pg/mL for the second.

Compared with “HH2-G3: single substituted HH2 peptide (VQGRIRVAVIRA-NH2)”, “1018-R4: single substituted 1018 peptide (VRLRVAVRIWRR-NH2) [Peptide 1018-R4]” is lower in “MCP1” value: 117 pg/mL for the first, -65 pg/mL for the second.

Compared with “1002-A12: single substituted 1002 peptide (VQRWLIVWRIRA-NH2) [Peptide 1002-A12]”, “1002-W6: single substituted 1002 peptide (VQRWLWVWRIRK-NH2) [Peptide 1002-W6]” is lower in “MCP1” value: 91.3 pg/mL for the first, -36.2 pg/mL for the second.

Compared with “1002-A8: single substituted 1002 peptide (VQRWLIVARIRK-NH2) [Peptide 1002-A8]”, “1018-Q10: single substituted 1018 peptide (VRLIVAVRIQRR-NH2) [Peptide 1018-Q10]” is lower in “MCP1” value: -36.2 pg/mL for the first, -54 pg/mL for the second.

Going from “1018-V9: single substituted 1018 peptide (VRLIVAVRVWRR-NH2) [Peptide 1018-V9]” to “HH2-I3: single substituted HH2 peptide (VQIRIRVAVIRA-NH2)”, the “MCP1” value falls from 17711 pg/mL to 982 pg/mL (18-fold).

Going from “HH2-I6: single substituted HH2 peptide (VQLRIIVAVIRA-NH2)” to “1002-I5: single substituted 1002 peptide (VQRWIIVWRIRK-NH2) [Peptide 1002-I5]”, the “MCP1” value rises from 1206 pg/mL to 5633.1 pg/mL (4.7-fold).

In the case of “1002-Q4: single substituted 1002 peptide (VQRQLIVWRIRK-NH2) [Peptide 1002-Q4]”, the “MCP1” value was -28.8 pg/mL.
